For 30 molecules, EC-1 (MIC) and PA-7 (MIC) results are on record in patent publication US8846933B2, “N-link hydroxamic acid derivatives useful as antibacterial agents” (Pfizer Inc., priority 2009, dated 2014).

In experiment [1] the test system is Escherichia coli EC-1: VOGEL, mouse virulent. Nature of the experiment: MIC determination (CLSI), strain EC-1. It is filed as cell-based. To be noted: strain EC-1, unit assumed. An outline of the steps:
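The mouse-virulent VOGEL isolate of E. coli, EC-1, served as test organism. Minimum inhibitory concentration was measured by CLSI dilution methodology (M7-A7; M100-S18 standards).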

Experiment [2] has as its system Pseudomonas aeruginosa UI-18: Wild-type (PA-7). Nature of the experiment: MIC determination (CLSI), strain PA-7. It is filed as cell-based. To be noted: strain PA-7, unit assumed. Summed up:
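Strain tested was P. aeruginosa UI-18, a wild-type isolate labelled PA-7. Minimum inhibitory concentrations followed CLSI dilution methodology for aerobically growing bacteria (M7-A7, M100-S18).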

Where [3] appears, read: generated in the same manner as in Table 4.

`CC(CCn1ccc(-c2ccc(Br)c(F)c2)cc1=O)(C(=O)NO)S(C)(=O)=O` (stereo not drawn) [Example 282, 4-[4-(4-bromo-3-fluorophenyl)-2-oxopyridin-1(2H)-yl]-N-hydroxy-2-methyl-2-(methylsulfonyl)butanamide] displayed an EC-1 (MIC) in experiment [1] of 0.5 µg/mL. The PA-7 (MIC) in experiment [2] is 1 µg/mL.

As for `Cc1c(-c2ccc(C#N)cc2F)ccn(CC[C@](C)(C(=O)NO)S(C)(=O)=O)c1=O` [Example 412, (2R)-4-[4-(4-cyano-2-fluorophenyl)-3-methyl-2-oxopyridin-1(2H)-yl]-N-hydroxy-2-methyl-2-(methylsulfonyl)butanamide], in experiment [1], the EC-1 (MIC) stood at 8 µg/mL. The molecule further showed a PA-7 (MIC) in experiment [2] of 4 µg/mL.

In experiment [1], `C[C@@](CCn1ccc(-c2cc(F)cc(Cl)c2Cl)cc1=O)(C(=O)NO)S(C)(=O)=O` [Example 451, (2R)-4-[4-(2,3-dichloro-5-fluorophenyl)-2-oxopyridin-1(2H)-yl]-N-hydroxy-2-methyl-2-(methylsulfonyl)butanamide] registered an EC-1 (MIC) of 4 µg/mL. This molecule returned a PA-7 (MIC) in experiment [2] of 4 µg/mL.

For `C[C@@](CCn1ccc(-c2ccc(-n3cnnn3)cc2)cc1=O)(C(=O)NO)S(C)(=O)=O` [Example 421, (2R)-N-hydroxy-2-methyl-2-(methylsulfonyl)-4-{2-oxo-4-[4-(1H-tetrazol-1-yl)phenyl]pyridin-1(2H)-yl}butanamide], the EC-1 (MIC) in experiment [1] was > 64 µg/mL. Moreover, the PA-7 (MIC) in experiment [2] was 64 µg/mL.

Take `Cc1ccc(-c2ccn(CC[C@](C)(C(=O)NO)S(C)(=O)=O)c(=O)c2)cc1C#N` [Example 476]: the EC-1 (MIC) in experiment [1] is 16 µg/mL. This molecule also had a PA-7 (MIC) in experiment [2] of 8 µg/mL.

Take `CCOc1ccc(-c2ccn(CC[C@](C)(C(=O)NO)S(C)(=O)=O)c(=O)c2)cc1` [Example 332, (2R)-4-[4-(4-ethoxyphenyl)-2-oxopyridin-1(2H)-yl]-N-hydroxy-2-methyl-2-(methylsulfonyl)butanamide]: the EC-1 (MIC) in experiment [1] came out at 64 µg/mL. For the same molecule, in experiment [2], the PA-7 (MIC) was 0.5 µg/mL.

In turn, `C[C@@](CCn1ccc(-c2ccc3cc(CO)ccc3c2)cc1=O)(C(=O)NO)S(C)(=O)=O` [Example 315, (2R)-N-hydroxy-4-{4-[6-(hydroxymethyl)-2-naphthyl]-2-oxopyridin-1(2H)-yl}-2-methyl-2-(methylsulfonyl)butanamide] showed an EC-1 (MIC) in experiment [1] of 0.5 µg/mL. This molecule registered a PA-7 (MIC) in experiment [2] of 1 µg/mL.

`Cc1cc(F)ccc1-c1ccn(CCC(C)(C(=O)NO)S(C)(=O)=O)c(=O)c1` (stereo not drawn) [Example 122, 4-[4-(4-fluoro-2-methylphenyl)-2-oxopyridin-1(2H)-yl]-N-hydroxy-2-methyl-2-(methylsulfonyl)butanamide] gave an EC-1 (MIC) in experiment [1] (setting [3]) of 16 µg/mL. In experiment [2] (setting [3]), the PA-7 (MIC) came out at 8 µg/mL.

In turn, `C[C@@](CCn1ccc(-c2ccc(-c3ccc(C#N)nc3)cc2)cc1=O)(C(=O)NO)S(C)(=O)=O` [Example 415] registered an EC-1 (MIC) in experiment [1] of 1 µg/mL. In experiment [2], this molecule showed a PA-7 (MIC) of 2 µg/mL.

In the case of `CC(CCn1ccc(-c2ccc(OCCO)cc2Cl)cc1=O)(C(=O)NO)S(C)(=O)=O` (stereo not drawn) [Example 232, 4-{4-[2-chloro-4-(2-hydroxyethoxy)phenyl]-2-oxopyridin-1(2H)-yl}-N-hydroxy-2-methyl-2-(methylsulfonyl)butanamide], the EC-1 (MIC) in experiment [1] was 16 µg/mL. In addition, in experiment [2], the PA-7 (MIC) was 16 µg/mL.

`Cn1ccnc1-c1ccc(-c2ccn(CCC(C)(C(=O)NO)S(C)(=O)=O)c(=O)c2)cc1` (stereo not drawn) [Example 104, N-hydroxy-2-methyl-4-{4-[4-(1-methyl-1H-imidazol-2-yl)phenyl]-2-oxopyridin-1(2H)-yl}-2-(methylsulfonyl)butanamide]: in experiment [1] (setting [3]), the EC-1 (MIC) is > 64 µg/mL. For the same molecule, the PA-7 (MIC) in experiment [2] (setting [3]) was > 64 µg/mL.

On to `CCS(=O)(=O)c1ccc(-c2ccn(CCC(C)(C(=O)NO)S(C)(=O)=O)c(=O)c2)cc1` (stereo not drawn) [Example 136, 4-{4-[4-(ethylsulfonyl)phenyl]-2-oxopyridin-1(2H)-yl}-N-hydroxy-2-methyl-2-(methylsulfonyl)butanamide], for which the EC-1 (MIC) in experiment [1] (setting [3]) was > 64 µg/mL. In addition, the PA-7 (MIC) in experiment [2] (setting [3]) came out at 64 µg/mL.

For `CC(CCn1ccc(-c2ccc(C#N)cc2)cc1=O)(C(=O)NO)S(C)(=O)=O` (stereo not drawn) [Example 198, 4-[4-(4-cyanophenyl)-2-oxopyridin-1(2H)-yl]-N-hydroxy-2-methyl-2-(methylsulfonyl)butanamide], in experiment [1], the EC-1 (MIC) was determined as 16 µg/mL. The PA-7 (MIC) in experiment [2] stood at 8 µg/mL.

As for `Cn1c(C#N)ccc1-c1ccn(CCC(C)(C(=O)NO)S(C)(=O)=O)c(=O)c1` (stereo not drawn) [Example 194, 4-[4-(5-cyano-1-methyl-1H-pyrrol-2-yl)-2-oxopyridin-1(2H)-yl]-N-hydroxy-2-methyl-2-(methylsulfonyl)butanamide], the EC-1 (MIC) in experiment [1] is > 64 µg/mL. Moreover, in experiment [2], the PA-7 (MIC) is > 64 µg/mL.

In experiment [1] (setting [3]), `COc1ccc(-c2ccn(CCC(C)(C(=O)NO)S(C)(=O)=O)c(=O)c2)cc1` (stereo not drawn) [Example 170, N-hydroxy-4-[4-(4-methoxyphenyl)-2-oxopyridin-1(2H)-yl]-2-methyl-2-(methylsulfonyl)butanamide] showed an EC-1 (MIC) of 1 µg/mL. Further, in experiment [2] (setting [3]), the PA-7 (MIC) was found to be 1 µg/mL.

`C[C@@](CCn1ccc(-c2ccc(OCCN3CCOCC3)c(Cl)c2Cl)cc1=O)(C(=O)NO)S(C)(=O)=O` [Example 304, (2R)-4-{4-[2,3-dichloro-4-(2-morpholin-4-ylethoxy)phenyl]-2-oxopyridin-1(2H)-yl}-N-hydroxy-2-methyl-2-(methylsulfonyl)butanamide] gave an EC-1 (MIC) in experiment [1] of 4 µg/mL. In experiment [2], this molecule showed a PA-7 (MIC) of 16 µg/mL.

In experiment [1] (setting [3]), `COc1ccc(-c2ccn(CCC(C)(C(=O)NO)S(C)(=O)=O)c(=O)c2)c(OC)c1` (stereo not drawn) [Example 161, 4-[4-(2,4-dimethoxyphenyl)-2-oxopyridin-1(2H)-yl]-N-hydroxy-2-methyl-2-(methylsulfonyl)butanamide] yielded an EC-1 (MIC) of 8 µg/mL. Moreover, the PA-7 (MIC) in experiment [2] (setting [3]) was 8 µg/mL.

As for `CC(CCn1ccc(-c2ccc3ncccc3c2)cc1=O)(C(=O)NO)S(C)(=O)=O` (stereo not drawn) [Example 254], the EC-1 (MIC) in experiment [1] was 4 µg/mL. Also, the PA-7 (MIC) in experiment [2] is 4 µg/mL.

In experiment [1], `C[C@@](CCn1ccc(-c2ccc(-c3cnoc3)cc2)cc1=O)(C(=O)NO)S(C)(=O)=O` [Example 454, (2R)-N-hydroxy-4-[4-(4-isoxazol-4-ylphenyl)-2-oxopyridin-1(2H)-yl]-2-methyl-2-(methylsulfonyl)butanamide] showed an EC-1 (MIC) of 2 µg/mL. In addition, the PA-7 (MIC) in experiment [2] is 4 µg/mL.

On to `CC(CCn1ccc(-c2ccc(-c3cccnc3)cc2F)cc1=O)(C(=O)NO)S(C)(=O)=O` (stereo not drawn) [Example 295, 4-[4-(2-fluoro-4-pyridin-3-ylphenyl)-2-oxopyridin-1(2H)-yl]-N-hydroxy-2-methyl-2-(methylsulfonyl)butanamide], for which the EC-1 (MIC) in experiment [1] was 1 µg/mL. Also, the PA-7 (MIC) in experiment [2] came to 8 µg/mL.

Consider `CC(CCn1ccc(-c2ccc(F)cc2F)cc1=O)(C(=O)NO)S(C)(=O)=O` (stereo not drawn) [Example 186, 4-[4-(2,4-difluorophenyl)-2-oxopyridin-1(2H)-yl]-N-hydroxy-2-methyl-2-(methylsulfonyl)butanamide], for which, in experiment [1], the EC-1 (MIC) came to 2 µg/mL. In experiment [2], this molecule registered a PA-7 (MIC) of 2 µg/mL.

Regarding `CN(C)S(=O)(=O)c1cccc(-c2ccn(CCC(C)(C(=O)NO)S(C)(=O)=O)c(=O)c2)c1` (stereo not drawn) [Example 148, 4-[4-{3-[(dimethylamino)sulfonyl]phenyl}-2-oxopyridin-1(2H)-yl]-N-hydroxy-2-methyl-2-(methylsulfonyl)butanamide], the EC-1 (MIC) in experiment [1] (setting [3]) turned out to be 64 µg/mL. Besides, the PA-7 (MIC) in experiment [2] (setting [3]) is > 64 µg/mL.

Turning to `C[C@@](CCn1ccc(-c2ccc3c(c2)C(=O)OC3)cc1=O)(C(=O)NO)S(C)(=O)=O` [Example 486], the EC-1 (MIC) in experiment [1] was > 64 µg/mL. Further, the PA-7 (MIC) in experiment [2] is > 64 µg/mL.

`CCCCc1ccc(-c2ccn(CC[C@](C)(C(=O)NO)S(C)(=O)=O)c(=O)c2)cc1` [Example 464, (2R)-4-[4-(4-butylphenyl)-2-oxopyridin-1(2H)-yl]-N-hydroxy-2-methyl-2-(methylsulfonyl)butanamide] gave an EC-1 (MIC) in experiment [1] of 0.03 µg/mL. This molecule also returned a PA-7 (MIC) in experiment [2] of 1 µg/mL.

In turn, `CC(CCn1ccc(-c2c[nH]c3ccccc23)cc1=O)(C(=O)NO)S(C)(=O)=O` (stereo not drawn) [Example 296, N-hydroxy-4-[4-(1H-indol-3-yl)-2-oxopyridin-1(2H)-yl]-2-methyl-2-(methylsulfonyl)butanamide] returned an EC-1 (MIC) in experiment [1] of 64 µg/mL. The same molecule yielded a PA-7 (MIC) in experiment [2] of 64 µg/mL.

`CC(CCn1ccc(-c2ccc(-c3ccncc3)c(F)c2)cc1=O)(C(=O)NO)S(C)(=O)=O` (stereo not drawn) [Example 298, 4-[4-(3-fluoro-4-pyridin-4-ylphenyl)-2-oxopyridin-1(2H)-yl]-N-hydroxy-2-methyl-2-(methylsulfonyl)butanamide] had an EC-1 (MIC) in experiment [1] of 0.5 µg/mL. Also, the PA-7 (MIC) in experiment [2] amounted to 4 µg/mL.

`Cc1ccc(-c2ccn(CCC(C)(C(=O)NO)S(C)(=O)=O)c(=O)c2)cc1N` (stereo not drawn) [Example 115, 4-[4-(3-amino-4-methylphenyl)-2-oxopyridin-1(2H)-yl]-N-hydroxy-2-methyl-2-(methylsulfonyl)butanamide] yielded an EC-1 (MIC) in experiment [1] (setting [3]) of 64 µg/mL. In addition, the PA-7 (MIC) in experiment [2] (setting [3]) is 16 µg/mL.

In the case of `CC(CCn1ccc(-c2ccc(-c3cc(CO)no3)cc2)cc1=O)(C(=O)NO)S(C)(=O)=O` (stereo not drawn) [Example 95, N-hydroxy-4-[4-{4-[3-(hydroxymethyl)isoxazol-5-yl]phenyl}-2-oxopyridin-1(2H)-yl]-2-methyl-2-(methylsulfonyl)butanamide], in experiment [1] (setting [3]), the EC-1 (MIC) was 8 µg/mL. The molecule also showed a PA-7 (MIC) in experiment [2] (setting [3]) of 8 µg/mL.

`COc1ccc(-c2ccn(CC[C@](C)(C(=O)NO)S(C)(=O)=O)c(=O)c2)cn1` [Example 285, (2R)-N-hydroxy-4-(6-methoxy-2′-oxo-3,4′-bipyridin-1′(2′H)-yl)-2-methyl-2-(methylsulfonyl)butanamide]: the EC-1 (MIC) in experiment [1] was 4 µg/mL. In experiment [2], this molecule yielded a PA-7 (MIC) of 4 µg/mL.

For the molecule `CCNC(=O)c1ccc(-c2ccn(CCC(C)(C(=O)NO)S(C)(=O)=O)c(=O)c2)cc1F` (stereo not drawn) [Example 177, N-ethyl-2-fluoro-4-{1-[4-(hydroxyamino)-3-methyl-3-(methylsulfonyl)-4-oxobutyl]-2-oxo-1,2-dihydropyridin-4-yl}benzamide], in experiment [1] (setting [3]), the EC-1 (MIC) is > 64 µg/mL. The PA-7 (MIC) in experiment [2] (setting [3]) was 64 µg/mL.
